One experiment deals with HCV replicon gt2a_JFH. In words: Cell-based HCV replicon assay (TaqMan), genotype 2a (JFH). The note with it: replicon 2a (JFH), replicon RNA by TaqMan, day 3. The protocol:
(§1) Measurement of inhibition by compounds of the present invention was performed using the HCV replicon system. Several different replicons encoding different HCV genotypes or mutations were used. In addition, potency measurements were made using different formats of the replicon assay, including different ways of measurements and different plating formats. See Jan M. Vrolijk et al., A replicons-based bioassay for the measurement of interferons in patients with chronic hepatitis C, 110 J. VIROLOGICAL METHODS 201 (2003); Steven S. Carroll et al., Inhibition of Hepatitis C Virus RNA Replication by 2′-Modified Nucleoside Analogs, 278(14) J. BIOLOGICAL […] 11979 (2003). However, the underlying principles are common to all of these determinations, and are outlined below.
(§2) Compounds of the present invention were assayed for cell-based anti-HCV activity using the following protocol. Replicon cells were seeded at 5000 cells/well in 96-well collagen I-coated Nunc plates in the presence of the test compound. Various concentrations of test compound, typically in 10 serial 2-fold dilutions, were added to the assay mixture, with the starting concentration ranging from 250 μM to 1 μM. The final concentration of DMSO was 0.5%, fetal bovine serum was 5%, in the assay media. Cells were harvested on day 3 by the addition of 1× cell lysis buffer (Ambion cat #8721). The replicon RNA level was measured using real time PCR (TaqMan® assay). The amplicon was located in 5B. The PCR primers were: 5B.2F, […] (SEQ. ID NO. 1); 5B.2R, […] (SEQ. ID NO. 2); the probe sequence was FAM-labeled […] (SEQ. ID NO. 3). GAPDH RNA was used as endogenous control and was amplified in the same reaction as NS5B (multiplex PCR) using primers and VIC-labeled probe recommended by the manufacturer (PE Applied Biosystem). The real-time RT-PCR reactions were run on ABI PRISM 7900HT Sequence Detection System using the following program: 48° C. for 30 minutes, 95° C. for 10 minutes, 40 cycles of 95° C. for 15 sec, 60° C. for 1 minute. The ΔCT values (CT5B-CTGAPDH) were plotted against the concentration of test compound and fitted to the sigmoid dose-response model using XLfit4 (MDL). […] Alternatively, to quantitate the absolute amount of replicon RNA, a standard curve was established by including serially diluted T7 transcripts of replicon RNA in the Taqman assay. All TaqMan® reagents were from PE Applied Biosystems. Such an assay procedure was described in detail in e.g. Malcolm et al., Antimicrobial Agents and Chemotherapy 50: 1013-1020 (2006).
(§3) Wherein gt1a_H77 was prepared as described in Yi et al., J Virol. 2004, 78(15):7904-15; gt1b_con1 was prepared as described in Lohmann et al., Science 1999, 285(5424):110-3; and gt2a_JFH was prepared as described in Kato et al., Gastroenterology. 2003, 125(6):1808-17. Chimeric replicons contain NS5A from patient isolates of genotypes 1a, 1b, 2b, 3a and 4a as indicated.
A general note: A replicon is a self-replicating genome or part of one, used to study replication in cells.

A further experiment relates to HCV replicon gt1a_H77. Kind of experiment: Cell-based HCV replicon assay (TaqMan), genotype 1a (H77). The note with it: replicon 1a (H77), replicon RNA by TaqMan, day 3. The protocol: as §1, §2, §3
Experiment [1] concerns HCV replicon 1a (Y93H) mutant. In words: Cell-based HCV replicon assay (TaqMan), genotype 1a mutant Y93H. The note with it: read-out: HCV replicon EC50 1a (Y93H). The protocol:
as §1, §2, §3

Experiment [2] relates to HCV chimeric replicon with NS5A of genotype 3a (NC00982). Kind of experiment: Cell-based HCV replicon assay (TaqMan), chimeric replicon genotype 3a (NC00982). As to conditions: replicon RNA by TaqMan, day 3. The protocol: as §1, §2, §3
In another experiment the test system is HCV replicon gt1b_con1. In words: Cell-based HCV replicon assay (TaqMan), genotype 1b (Con1). The note with it: replicon 1b (Con1), replicon RNA by TaqMan, day 3. The protocol: as §1, §2, §3
Experiment [3] concerns HCV chimeric replicon with NS5A of genotype 4a (DQ41878). Kind of experiment: Cell-based HCV replicon assay (TaqMan), chimeric replicon genotype 4a (DQ41878). The note with it: Hepatitis C virus, 72 h, read-out: HCV replicon EC50 4a (DQ41878). The protocol:
as §1, §2, §3

Where [4] appears, read: Hepatitis C virus, 72 h, read-out: HCV replicon EC50 3a (NC00982), chimeric replicon 3a (NC00982).

This is an account of results in patent publication US8609635B2, “Fused tricyclic silyl compounds and methods of use thereof for the treatment of viral diseases” (priority 2010, dated 2013).

As usually defined, the EC50 is the concentration needed to bring the measured effect to its halfway point.

SMILES strings stand for the structures. Read-outs that look alike come from different tables or passages of the source.

On to `COC(=O)N[C@H](C(=O)N1CC(F)(F)C[C@H]1c1ncc(-c2ccc3oc(-c4ccc5c(ccc6nc([C@@H]7C[Si](C)(C)CN7C(=O)[C@@H](NC(=O)OC)C(C)C)[nH]c65)c4)cc3c2)[nH]1)C(C)C` [Compound 42], for which the concentration for a half-maximal effect (EC50) was over 10 nM with HCV replicon gt2a_JFH; 0.012 nM with HCV replicon gt1a_H77; 103 nM in experiment [1] (replicon 1a mutant Y93H, replicon RNA by TaqMan, day 3); 11.4 nM in experiment [2] (chimeric replicon 3a (NC00982), read-out: HCV replicon EC50 3a (NC00982)); 0.005 nM in the experiment on HCV replicon gt1b_con1.
Take `COC(=O)N[C@H](C(=O)N1C[Si](C)(C)C[C@H]1c1ncc(-c2ccc(-c3ccc4c(ccc5nc([C@@H]6CCCN6C(=O)[C@@H](NC(=O)OC)C(C)C)[nH]c54)c3)cc2OCCO)[nH]1)C(C)C` [Compound 44]: the EC50 was over 10 nM in the experiment with HCV replicon gt2a_JFH (Hepatitis C virus, 72 h); over 1 nM with HCV replicon gt1a_H77 (Hepatitis C virus, 72 h); 1390 nM in experiment [1] (Hepatitis C virus, 72 h); 31 nM in experiment [2] (setting [4]); 0.007 nM in the experiment on HCV replicon gt1b_con1 (Hepatitis C virus, 72 h).
The matching figures for `COC(=O)N[C@H](C(=O)N1C[Si](C)(C)C[C@H]1c1ncc(-c2ccc(-c3ccc4c(ccc5nc([C@@H]6CCCN6C(=O)[C@@H](NC(=O)OC)C(C)C)[nH]c54)c3)cc2OC)[nH]1)C(C)C` [Compound 46]: 0.6 nM, 0.26 nM, 497 nM, 2.4 nM and 0.004 nM.
For `COC(=O)N[C@H](C(=O)N1C[Si](C)(C)C[C@H]1c1ncc(-c2ccc(-c3ccc4c(ccc5nc([C@@H]6CCCN6C(=O)[C@@H](NC(=O)OC)C(C)C)[nH]c54)c3)cc2-c2cccs2)[nH]1)C(C)C` [Compound 50], in that order: 1.62 nM, 0.505 nM, 1150 nM, 3 nM and 0.008 nM.
Turning to `COC(=O)NC(C(=O)N1C[Si](C)(C)CC1c1ncc(-c2ccc(-c3ccc4c(ccc5nc([C@@H]6CCCN6C(=O)C(NC(=O)OC)C(C)C)[nH]c54)c3)cc2)[nH]1)C(C)C` (stereo partly drawn) [Compound 2], the EC50 in the experiment on HCV replicon gt2a_JFH (Hepatitis C virus, 72 h) came to 0.019 nM; with HCV replicon gt1a_H77 (Hepatitis C virus, 72 h), 0.01 nM; in experiment [2] (setting [4]) it was 0.05 nM; in the experiment on HCV replicon gt1b_con1 (Hepatitis C virus, 72 h), 0.004 nM.
As for `COC(=O)NC(C(=O)N1CCCC1c1ncc(-c2ccc(-c3ccc4c(ccc5nc([C@@H]6C[Si](C)(C)CN6C(=O)C(NC(=O)OC)C(C)C)[nH]c54)c3)cc2)[nH]1)C(C)C` (stereo partly drawn) [Compound 1], the EC50 in the experiment with HCV replicon gt2a_JFH (Hepatitis C virus, 72 h) stood at 0.003 nM; with HCV replicon gt1a_H77 (Hepatitis C virus, 72 h), 0.003 nM; in experiment [3], 0.067 nM; in experiment [2] (setting [4]), 0.26 nM; in the experiment with HCV replicon gt1b_con1 (Hepatitis C virus, 72 h), 0.003 nM.
Regarding `COC(=O)N[C@H](C(=O)N1C[Si](C)(C)C[C@H]1c1ncc(-c2ccc(-c3ccc4c(ccc5nc([C@@H]6CCCN6C(=O)[C@@H](NC(=O)OC)C(C)C)[nH]c54)c3)cc2OCCOC(C)=O)[nH]1)C(C)C` [Compound 45], the EC50 is over 10 nM with HCV replicon gt2a_JFH (Hepatitis C virus, 72 h); over 1 nM in the experiment on HCV replicon gt1a_H77 (Hepatitis C virus, 72 h); 2640 nM in experiment [1] (Hepatitis C virus, 72 h); 52 nM in experiment [2] (setting [4]); 0.009 nM in the experiment on HCV replicon gt1b_con1 (Hepatitis C virus, 72 h).
For `COC(=O)NC(C(=O)N1C[Si](C)(C)CC1c1ncc(-c2ccc(-c3ccc4c(ccc5nc([C@@H]6CCCN6C(=O)C(NC(=O)OC)C(C)C)[nH]c54)c3)s2)[nH]1)C(C)C` (stereo partly drawn) [Compound 20], in that order: 0.3 nM, 0.14 nM, 921 nM, 0.26 nM and 0.004 nM.
For `COC(=O)N[C@H](C(=O)N1C[Si](C)(C)C[C@H]1c1ncc(-c2ccc(-c3ccc4c(ccc5nc([C@@H]6CC(F)(F)CN6C(=O)[C@@H](NC(=O)OC)C(C)C)[nH]c54)c3)cn2)[nH]1)C(C)C` [Compound 72], in that order: 0.496 nM, 0.1 nM, 246 nM, 2.41 nM and 0.004 nM.
Consider `COC(=O)N[C@H](C(=O)N1CC(O)C[C@H]1c1ncc(-c2ccc(-c3ccc4c(ccc5nc([C@@H]6C[Si](C)(C)CN6C(=O)[C@@H](NC(=O)OC)C(C)C)[nH]c54)c3)cc2)[nH]1)C(C)C` (stereo partly drawn) [Compound 65], for which the EC50 with HCV replicon gt2a_JFH (Hepatitis C virus, 72 h) is 0.3 nM; in the experiment on HCV replicon gt1a_H77 (Hepatitis C virus, 72 h), 0.06 nM; in experiment [1] (Hepatitis C virus, 72 h), 44 nM; in experiment [2] (setting [4]), 1.7 nM; with HCV replicon gt1b_con1 (Hepatitis C virus, 72 h), 0.004 nM.
For `COC(=O)NC(C(=O)N1C[Si](C)(C)CC1c1ncc(-c2ccc(-c3ccc4c(ccc5nc([C@@H]6C7CCC(C7)N6C(=O)C(NC(=O)OC)C(C)C)[nH]c54)c3)cc2)[nH]1)C(C)C` (stereo partly drawn) [Compound 16], in that order: 0.06 nM, 0.04 nM, 146 nM, 0.23 nM and 0.004 nM.
For `COC(=O)NC(C(=O)N1C2CCC(C2)C1c1ncc(-c2ccc(-c3ccc4c(ccc5nc([C@@H]6C[Si](C)(C)CN6C(=O)C(NC(=O)OC)C(C)C)[nH]c54)c3)cc2)[nH]1)C(C)C` (stereo partly drawn) [Compound 15], the EC50 in the experiment with HCV replicon gt2a_JFH (Hepatitis C virus, 72 h) was found to be 0.12 nM; in the experiment with HCV replicon gt1a_H77 (Hepatitis C virus, 72 h), 0.088 nM; in experiment [1] (Hepatitis C virus, 72 h), 131 nM; in experiment [2] (setting [4]) it was 1 nM; in the experiment on HCV replicon gt1b_con1 (Hepatitis C virus, 72 h), 0.011 nM.
The matching figures for `COC(=O)N[C@H](C(=O)N1C[Si](C)(C)C[C@H]1c1ncc(-c2ccc(-c3ccc4c(ccc5nc([C@@H]6CCCN6C(=O)[C@@H](NC(=O)OC)C(C)C)[nH]c54)c3)nc2)[nH]1)C(C)C` [Compound 49]: 0.037 nM, 0.04 nM, 185 nM, 0.2 nM and 0.014 nM.
As to `COC(=O)N[C@H](C(=O)N1C[Si](C)(C)C[C@H]1c1ncc(-c2ccc(-c3ccc4c(ccc5nc([C@@H]6CCCN6C(=O)[C@@H](NC(=O)OC)C(C)C)[nH]c54)c3)cc2C2CC2)[nH]1)C(C)C` [Compound 47], the EC50 was found to be 1.7 nM in the experiment on HCV replicon gt2a_JFH (Hepatitis C virus, 72 h); 0.4 nM in the experiment with HCV replicon gt1a_H77 (Hepatitis C virus, 72 h); 1600 nM in experiment [1] (Hepatitis C virus, 72 h); 5.5 nM in experiment [2] (setting [4]); 0.007 nM in the experiment on HCV replicon gt1b_con1 (Hepatitis C virus, 72 h).
For `COC(=O)N[C@H](C(=O)N1C[Si](C)(C)C[C@H]1c1ncc(-c2ccc(-c3ccc4c(ccc5nc([C@@H]6CCCN6C(=O)[C@@H](NC(=O)OC)C(C)C)[nH]c54)c3)cc2-c2ccncc2)[nH]1)C(C)C` [Compound 51], in that order: over 10 nM, over 1 nM, 8420 nM, over 100 nM and 0.05 nM.
In the case of `COC(=O)N[C@H](C(=O)N1C[Si](C)(C)C[C@H]1c1ncc(-c2ccc(-c3ccc4c(ccc5nc([C@@H]6CCCN6C(=O)[C@@H](NC(=O)OC)C(C)C)[nH]c54)c3)cc2F)[nH]1)C(C)C` [Compound 48], the EC50 with HCV replicon gt2a_JFH (Hepatitis C virus, 72 h) was 0.07 nM; in the experiment with HCV replicon gt1a_H77 (Hepatitis C virus, 72 h), 0.05 nM; in experiment [1] (Hepatitis C virus, 72 h) it was 329 nM; in experiment [2] (setting [4]), 0.25 nM; in the experiment with HCV replicon gt1b_con1 (Hepatitis C virus, 72 h), 0.004 nM.
For `COC(=O)N[C@H](C(=O)N1C[Si](C)(C)C[C@H]1c1ncc(-c2ccc(-c3ccc4c(ccc5nc([C@@H]6CC(F)(F)CN6C(=O)[C@@H](NC(=O)OC)C(C)C)[nH]c54)c3)cc2F)[nH]1)C(C)C` [Compound 71], the EC50 in the experiment with HCV replicon gt2a_JFH (Hepatitis C virus, 72 h) is 0.45 nM; in the experiment with HCV replicon gt1a_H77 (Hepatitis C virus, 72 h), 0.12 nM; in experiment [1] (Hepatitis C virus, 72 h), 188 nM; in experiment [2] (setting [4]) it was 0.9 nM; in the experiment with HCV replicon gt1b_con1 (Hepatitis C virus, 72 h), under 0.002 nM.
